According to BindingDB's records for doi:10.1021/jm00073a011 (Glaxo Group Research, 1993):
pIC50: −log10 of the molar value.

Molecular target: T1, Dimer of Gag-Pol polyprotein [489-587] (Human immunodeficiency virus 1, UniProt P12497)
T1 construct: 489-587
Assay: Protease Inhibition Assay
Settings: pH 6; 37 °C
Procedure: IC50 values were obtained by assaying the enzyme against the synthetic substrate peptide […], which was tritiated at the proline residue, and then was coupled via its N-terminal lysine to an Affi-gel bead mixture. The assay was performed in 96-well microtiter filtration plates. The plates containing HIV protease and radiolabeled substrate beads were incubated with or without inhibitor. […] IC50 determinations were performed in duplicate at each concentration with mean values used for data analysis.

Point of comparison: `CC1(C)S[C@H]([C@H](NC(=O)Cc2ccccc2)C(N)=O)N[C@H]1C(=O)NCCNC(=O)[C@@H]1N[C@@H]([C@H](NC(=O)Cc2ccccc2)C(N)=O)SC1(C)C`, pIC50 8.52. Against it:
- CCNC(=O)[C@@H](NC(=O)Cc1ccccc1)[C@@H]1N[C@@H](C(=O)NCCNC(=O)[C@@H]2N[C@@H]([C@H](NC(=O)Cc3ccccc3)C(=O)NCC)SC2(C)C)C(C)(C)S1 — 0.20 log units lower, 8.32
- COC(=O)[C@@H](NC(=O)Cc1ccccc1)[C@@H]1N[C@@H](C(=O)NCCNC(=O)[C@@H]2N[C@@H]([C@H](NC(=O)Cc3ccccc3)C(=O)OC)SC2(C)C)C(C)(C)S1 [[2R-[2a(R*),4B ] ]-4,4-[1,2-Ethanediylbis[aminocarbonyl] ]-bis[5,5-dimethyl-a-[ (phenylacetyl)amino]-2-thiazolidineacetic acid, methyl ester]] — 1.30 log units lower, 7.22
